Reference: patent US10759831B2, “Peptide compound, production method therefor, and use thereof” (iNtRON Biotechnology, Inc., priority 2014, dated 2020)
Like-named read-outs stand apart in the source and are kept apart here.

Key:
[1] = Physicochemical characterization
[2] = tested on: colon cancer cell line SW480; assay: SRB cell viability assay, colon cancer cell line SW480; format: cell-based; settings: Homo sapiens, read-out: Growth inhibition value of cancer cell (IC50)
Experimental: (§1) In detail, 190 μl of a cell suspension at a concentration of 3.5×10^4 cells/ml was inoculated in each well of a 96-well microplate. 0.8 μM, 4 μM, 20 μM, or 100 μM of Asperphenin was added to the cell culture medium, and cultured at a temperature of 37° C. for 72 hours under the condition of 5% CO2. After incubation, 50 μl of 50% (v/v) trichloroacetic acid solution (Sigma Aldrich) was added to each well, and then, incubated at a temperature of 4° C. for 30 minutes, to thereby fix the cells thereto. The fixed cells were washed with water five times, and then, dried in the air.
(§2) Next, 80 μl of a 0.4% (w/v) SRB aqueous solution (Sigma Aldrich) containing 1% (v/v) acetic acid (DUKSAN) was added to each well, incubated at room temperature for 1 hour to stain cells therein, and the stained cells washed with water and dried. The cells were dissolved by adding 200 μl of 10 mM Tris (pH 10.0) (Sigma Aldrich) to each well, and then, the number of living cells was calculated by measuring the absorbance thereof at 515 nm. […]
(§3) From the colon cancer cell lines HCT116 (ATCC), HCT15 (Korean Cell Line Bank), LS174T (Korean Cell Line Bank), RKO(ATCC), and SW480(ATCC), cell growth inhibition concentrations (IC50, μM) were calculated as described in Example 2-1, and the results are shown in Table 4. […]

[3] = tested on: colon cancer cell line HCT116; assay: SRB cell viability assay, colon cancer cell line HCT116; format: cell-based; settings: Homo sapiens, HCT-116
Experimental: Regarding a lung cancer cell line A549 (Korean Cell line Bank), a colon cancer cell line HCT116 (ATCC), a stomach cancer cell line SNU638 (Korean Cell Line Bank), a liver cancer cell line SK-HEP-1 (Korean Cell line Bank), and a breast cancer cell line MDA-MB-231 (Korean Cell line Bank), a sulforhodamine B (SRB) assay which is a method of measuring cell viability was used for measuring apoptosis effects of Asperphenin.
as §1
Next, 80 μl of a 0.4% (w/v) SRB aqueous solution (Sigma Aldrich) containing 1% (v/v) acetic acid (DUKSAN) was added to each well, incubated at room temperature for 1 hour to stain cells therein, and the stained cells washed with water and dried. The cells were dissolved by adding 200 μl of 10 mM Tris (pH 10.0) (Sigma Aldrich) to each well, and then, the number of living cells was calculated by measuring the absorbance thereof at 515 nm. The concentration of the compound inhibiting cell growth to 50% based on the number of the living cells, i.e., 50% inhibition concentration (IC50) was calculated, and the results are shown in Table 3. Here, as a positive control, etoposide (Sigma Aldrich) was used.
From the colon cancer cell lines HCT116 (ATCC), HCT15 (Korean Cell Line Bank), LS174T (Korean Cell Line Bank), RKO(ATCC), and SW480(ATCC), cell growth inhibition concentrations (IC50, μM) were calculated as described in Example 2-1, and the results are shown in Table 4. Here, as a positive control, paclitaxel (Sigma Aldrich) was used.

[4] = tested on: colon cancer cell line RKO; assay: SRB cell viability assay, colon cancer cell line RKO; format: cell-based; settings: Homo sapiens, read-out: Growth inhibition value of cancer cell (IC50)
Experimental: as §1, §2, §3

[5] = tested on: apoptosis-related proteins in RKO cells; assay: Immunoblotting of apoptosis-related proteins; format: cell-based, human
Experimental: As described in Example 2-3, cells were obtained in a way that Asperphenin B at the concentration of 0.625 μM, 1.25 μM, 2.5 μM, 5 μM, or 10 μM was added to the RKO cells, and then, cultured for 48 hours. However, cells were obtained in a way that Asperphenin B at the concentration of 5 μM was added to the RKO cells, and then, cultured for 0 to 48 hours. Then, proteins were obtained from the obtained cells.
Also, regarding the expression of apoptosis-related proteins, anti-ATM antibody (Cell Signaling Technology), anti-p-Chk (Thr68) antibody (Cell Signaling Technology), anti-Chk antibody (Cell Signaling Technology), anti-p-H2AX antibody (Cell Signaling Technology), anti-p53 antibody (Santa Cruz), anti-Bax antibody (Santa Cruz), anti-BID antibody (Cell Signaling Technology), anti-Caspase-8 antibody (Cell Signaling Technology), anti-Caspase-3 antibody (Cell Signaling Technology), anti-Caspase-9 antibody (Cell Signaling Technology), anti-cleaved PARP antibody (BD Biosciences), and anti-β-actin antibody (Santa Cruz) were used, to thereby perform immunoblotting.

[6] = tested on: colon cancer cell line HCT15; assay: SRB cell viability assay, colon cancer cell line HCT15; format: cell-based; settings: Homo sapiens, HCT-15, read-out: Growth inhibition value of cancer cell (IC50)
Experimental: as §1, §2, §3

Stability [1]: stable at room temperature
IC50 [2]: 31.4 µM
IC50 ([3]; HCT116, 72 hours, Table 3, read-out: Cell growth inhibition concentration (IC50)): 2.6 µM
IC50 ([3]; HCT116, Table 4, read-out: Growth inhibition value of cancer cell (IC50)): 4.05 µM
IC50 [4]: 1.17 µM
IC50 [6]: 7.2 µM
Structure (SMILES): CCCCCCCCC[C@@H](O)CC(=O)N[C@@H](CC(N)=O)C(=O)N[C@@H](CCC(N)=O)C(=O)N[C@H](CC(=O)c1cc(C)cc(O)c1C(=O)c1c(O)cccc1O)CC(C)C [Asperphenin B]
Solubility in organic solvent [1]: well dissolved in a moderate organic solvent, such as methanol and acetone
Expression of p53 and Bax ([5]; 5 μM, 0 to 48 hours, FIG. 6B): increased in a time-dependent manner
Expression of p-Chk2 (Thr68), p-H2AX (Ser139), cleaved caspase-8, cleaved caspase-9, cleaved caspase-3, and PARP ([5]; 5 μM, 48 hours, FIG. 6B): increased
Expression of ATM protein ([5]; 48 hours, 0.625-10 μM, FIG. 6A): increased in a concentration-dependent manner
Expression of p53 protein ([5]; 48 hours, 0.625-10 μM, FIG. 6A): increased in a concentration-dependent manner
Chk2 and H2AX, sub-regulatory factors of ATM ([5]; 48 hours, FIG. 6A): phosphorylated to be activated
Cleavage of Bid, caspase-8, caspase-9, caspase-3 and PARP ([5]; 48 hours, FIG. 6A): induced
Expression of Bax ([5]; 48 hours, FIG. 6A): increased expression
